Earlier results, collected in patent publication US8609722B2, “Anesthetic composition for topical administration comprising lidocaine, prilocaine and tetracaine” (priority 2003, dated 2013).
Counter-ions that a name gives are not always drawn.

How the values were obtained:
erythrocyte heme protein = settings: the very young may be more susceptible

For `CCCNC(C)C(=O)Nc1ccccc1C` (centres unmarked) [prilocaine hydrochloride], the “dose above which symptoms of methemoglobinaemia usually occur” value (erythrocyte heme protein) is given as “exceed 8 mg per kg body-weight” and the solubility in water is given as “readily soluble in water”.
